The NIST ThermoML archive (doi:10.1021/je9006037)

Test: refractive index (Na D-line) (dimensionless); xn = mol fraction of the nth substance listed
Details: 101 kPa, Liquid

CCn1cc[n+](C)c1.O=S(=O)([O-])C(F)(F)F [1-ethyl-3-methylimidazolium trifluoromethanesulfonate] + CC(C)O
refractive index
Details	288.15 K	298.15 K	308.15 K	318.15 K	328.15 K	338.15 K
x1 = 0.04997	1.38697	1.38304	1.37919	1.3753	1.37148	1.36735
x1 = 0.09937	1.39302	1.38935	1.38578	1.38236	1.37896	1.37487
x1 = 0.1504	1.39853	1.39494	1.39186	1.38861	1.38506	1.38103
x1 = 0.1995	1.40326	1.39957	1.39662	1.39356	1.39032	1.38662
x1 = 0.2508	1.40739	1.40382	1.40089	1.39817	1.39474	1.3916
x1 = 0.2997	1.411	1.4074	1.40439	1.40147	1.3983	1.39544
x1 = 0.3988	1.41689	1.41365	1.41071	1.40758	1.40457	1.40189
x1 = 0.5014	1.42209	1.41872	1.41564	1.41261	1.40972	1.4068
x1 = 0.6012	1.42562	1.42259	1.41956	1.41667	1.41379	1.41098
x1 = 0.6972	1.42868	1.42574	1.42285	1.41998	1.41714	1.41431
x1 = 0.7978	1.43159	1.42861	1.42579	1.42298	1.42017	1.41738
x1 = 0.8342	1.43251	1.42965	1.42678	1.42395	1.42115	1.41837
x1 = 0.8905	1.43379	1.43098	1.42818	1.42541	1.42264	1.41986
x1 = 1	1.43599	1.43322	1.4304	1.42767	1.42494	1.42222

CCn1cc[n+](C)c1.O=S(=O)([O-])C(F)(F)F [1-ethyl-3-methylimidazolium trifluoromethanesulfonate] + CCCO
refractive index
Details	288.15 K	298.15 K	308.15 K	318.15 K	328.15 K	338.15 K
x1 = 0.05007	1.39381	1.38991	1.38613	1.38243	1.37892	1.37545
x1 = 0.1013	1.39933	1.39557	1.39221	1.38877	1.38613	1.38306
x1 = 0.1503	1.40371	1.4001	1.3968	1.3938	1.39112	1.38856
x1 = 0.2001	1.40743	1.404	1.4009	1.39795	1.39522	1.39266
x1 = 0.2497	1.41088	1.40747	1.40434	1.40127	1.39872	1.39631
x1 = 0.3008	1.41391	1.41061	1.40747	1.40445	1.40173	1.39926
x1 = 0.3996	1.41854	1.41537	1.41218	1.40923	1.40634	1.40392
x1 = 0.4965	1.42297	1.41986	1.41681	1.41376	1.41082	1.4078
x1 = 0.602	1.42671	1.42372	1.42062	1.41752	1.41447	1.41163
x1 = 0.7043	1.42943	1.42647	1.42347	1.42076	1.41793	1.41508
x1 = 0.7945	1.43174	1.42886	1.42604	1.42323	1.4204	1.41758
x1 = 0.8421	1.4325	1.42963	1.4268	1.42398	1.42115	1.41838
x1 = 0.8988	1.43378	1.43096	1.42815	1.42533	1.42258	1.41984
x1 = 1	1.43599	1.43322	1.4304	1.42767	1.42494	1.42222
